Test results published in patent US10954265B2 (Van Andel Research Institute, priority 2016, dated 2021).
Positions count from the first letter of the chain named. Where “and” joins values, the source holds several entries; their conditions need not be identical. Equal entries are not always repeated.

Key:
GR [1] = target: T1, GR (Homo sapiens, UniProt P04150); assay: Determination of induction activity, MMTV-Luc reporter in AD293 cells transfected with pRShGR (Table 3, FIG. 14); conditions: for RLU / RLU/Renilla: single replicate wells; for activation at 0.01 µM / activation at 1 µM: AD293, 16 h, read-out: % to Dex induction; for fold induction at 0.01 µM / fold induction at 1 µM: AD293, read-out: Steroid Fold Induction; for % to Dex induction: relative to DEX 1000 nM
T1 sequence (P04150 1-777): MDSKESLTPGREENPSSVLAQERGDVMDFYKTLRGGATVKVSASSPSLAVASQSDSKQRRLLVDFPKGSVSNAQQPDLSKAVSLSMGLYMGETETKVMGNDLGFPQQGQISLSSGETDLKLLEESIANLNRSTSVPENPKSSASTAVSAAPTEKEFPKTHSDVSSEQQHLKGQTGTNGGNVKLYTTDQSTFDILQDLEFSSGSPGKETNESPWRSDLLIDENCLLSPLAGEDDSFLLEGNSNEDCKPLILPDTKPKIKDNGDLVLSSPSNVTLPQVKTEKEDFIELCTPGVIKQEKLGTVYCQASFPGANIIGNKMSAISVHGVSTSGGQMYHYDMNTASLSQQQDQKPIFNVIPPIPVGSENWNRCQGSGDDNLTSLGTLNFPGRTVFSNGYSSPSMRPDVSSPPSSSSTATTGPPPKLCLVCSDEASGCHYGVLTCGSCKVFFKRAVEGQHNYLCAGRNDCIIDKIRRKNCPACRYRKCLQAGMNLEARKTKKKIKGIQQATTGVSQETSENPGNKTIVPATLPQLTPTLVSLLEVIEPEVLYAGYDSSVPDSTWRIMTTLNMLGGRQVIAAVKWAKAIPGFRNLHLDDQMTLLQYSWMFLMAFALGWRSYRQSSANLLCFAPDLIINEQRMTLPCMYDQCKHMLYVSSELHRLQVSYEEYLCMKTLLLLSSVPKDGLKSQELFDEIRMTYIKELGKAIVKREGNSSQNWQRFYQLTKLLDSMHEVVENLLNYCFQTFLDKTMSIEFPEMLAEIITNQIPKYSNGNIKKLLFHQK
Experimental: (§1) AD293 cells were split at 20,000/well in 24 well plate one day before transfection. For transactivation, 100 ng pHHLuc (MMTV-Luc) plasmid, 0.1 ng pRShGR together with 5 ng phRGtkRenilla were transfected by X-tremeGENE 9 (Roche) into AD293 cells per well. For transreperssion, 10 ng AP1-Luc, 100 ng pRShGR and 5 ng phRGtkRenilla were transfected into AD293 cells per well. One day after transfection, cells were induced by different treatment (steroids or vehicle) 16 hrs overnight. Cells were harvest by 1× passive lysis buffer (Promega), luciferase activity was assayed by the Dual-Glo Luciferase system (Promega). Data were plotted by Luciferase Value/Renilla Value, as Relative Luciferase Unit (RLU).
AD293 cells were transfected with 0.1 ng pRShGR, 100 ng MMTV-Luc reporter, and 10 ng TK-Renilla internal control per well in a 24-well plate. One day after transfection, cells were induced by candidate compounds at a concentration of 10 nm or 1 um (see FIG. 14). Cells were harvested and luciferase activity was measured by Promega Dual Luciferacse kit.

GR [2] = target: T1, GR; assay: Potency of candidate compounds in MMTV-luciferase reporter, full dose-response (FIG. 16A); assay type: cell-based; parameters: expressed in transfected cells; host or cells: AD293; conditions: doses 0.01 nM to 1000 nM
Text: To evaluate the potency of candidate compounds in a reporter system, an MMTV-luciferase reporter was used.

[3] = tested on: OVA-induced mouse asthma model; assay: OVA-induced mouse asthma model, lung function (RL) by FlexiVent; assay type: in vivo
Experimental: A OVA-induced mouse asthma model was used to examine the anti-inflammatory effect of candidate compounds. 7-9 weeks old Balb/c mice were primarily immunized with OVA (ovalbumin). […] Related Lung (RL) function in response to acetylcholine was measured by the forced oscillation techniques with the FlexiVent system (SCIREQ).
To evaluate the effect of candidate compounds in repressing lung inflammation, a OVA-induced mouse asthma model was used (RL: relative lung function).

GR Q642N = target: T2, GR Q642N (Homo sapiens, UniProt P04150, Q642N); assay: Transactivation on MMTV-Luc in AD293 cells, GR Q642N mutant; assay type: cell-based; conditions: compared with wild type, up to saturation concentration
T2 construct: expressed in transfected cells; host or cells: AD293
T2 sequence (P04150 1-777 Q642N): T1 sequence (P04150 1-777) with Q642N
Experimental: as §1

GR [4] = target: T1, GR; assay: GR transactivation, MMTV-driven luciferase reporter (MMTV-Luc) in AD293 cells; assay type: cell-based; parameters: expressed in transfected cells; host or cells: AD293; conditions: transactivation assay, FIG. 3B
Experimental: as §1

Compound | Mean (RLU/Renilla) (GR [1]; 10 nM) | induction activity compared to other candidate compounds and VSGC12 (GR [1]; 10 nM) | RLU (GR [1]; 10 nM) | RLU/Renilla (GR [1]; 10 nM) | Mean (RLU/Renilla) (GR [1]; 1000 nM) | RLU (GR [1]; 1000 nM) | RLU/Renilla (GR [1]; 1000 nM) | activation at 0.01 µM (GR [1]) [%] | activation at 1 µM (GR [1]) [%] | fold induction at 0.01 µM (GR [1]) | fold induction at 1 µM (GR [1]) | potency compared with VSGC12 and DEX (GR [2]) | repression of lung inflammation compared with VSGC12 ([3]; 0.125 mg/kg, FIG. 16B) | increase in potency over fluticasone furoate (FF) ([3]; FIG. 15) [fold] | potency in repressing lung inflammation compared with FF ([3]; FIG. 15, side by side comparison) | % to Dex induction (GR [1]; 10 nM) [%] | % to Dex induction (GR [1]; 1000 nM) [%] | full dose-response curve of Q642N (GR Q642N) | leftward shift of the cortisol dose-response curve (GR [4])
C[C@@H]1CC2C3C=C(F)C4=Cc5c(cnn5-c5ccccc5)C[C@]4(C)[C@@]3(F)C(O)C[C@]2(C)[C@@]1(OC(=O)c1ccco1)C(=O)O (stereo partly shown) [Compound 1] | 0.119 | much lower induction activity | 21,720 and 17,200 and 24,320 | 0.116 and 0.093 and 0.149 | 0.806 | 186,480 and 180,880 and 219,480 | 0.642 and 0.818 and 0.959 | 8.33 | 56.2 | 2.42 | 16.4 | – | – | – | – | – | – | – | –
CCOC(=O)[C@@]1(OC(=O)c2ccco2)[C@H](C)CC2C3C=C(F)C4=Cc5c(cnn5-c5ccccc5)C[C@]4(C)[C@@]3(F)C(O)C[C@@]21C (stereo partly shown) [Compound 2] | 1.328 | – | 221,760 and 206,200 and 190,520 | 1.316 and 1.430 and 1.238 | 1.311 | 296,680 and 295,960 and 323,600 | 1.365 and 1.267 and 1.302 | 92.6 | 91.5 | 26.9 | 26.6 | – | – | – | – | – | – | – | –
CC(C)OC(=O)[C@@]1(OC(=O)c2ccco2)[C@H](C)CC2C3C=C(F)C4=Cc5c(cnn5-c5ccccc5)C[C@]4(C)[C@@]3(F)C(O)C[C@@]21C (stereo partly shown) [Compound 3] | 1.462 | – | 295,280 and 295,520 and 299,320 | 1.505 and 1.300 and 1.580 | 1.219 | 249,160 and 279,160 and 254,120 | 1.143 and 1.332 and 1.181 | 102 | 85 | 29.6 | 24.7 | – | – | – | – | – | – | – | –
C[C@@H]1CC2C3C=C(F)C4=Cc5c(cnn5-c5ccccc5)C[C@]4(C)[C@@]3(F)C(O)C[C@]2(C)[C@@]1(OC(=O)c1ccco1)C(=O)OCF (stereo partly shown) [Compound 4] | 1.332 | – | 288,320 and 249,160 and 244,360 | 1.518 and 1.258 and 1.222 | 1.153 | 222,960 and 225,280 and 226,280 | 1.178 and 1.134 and 1.147 | 92.9 | 80.4 | 27 | 23.4 | higher potency | much higher repression activity | 8 | much more potent | – | – | – | –
C[C@@H]1CC2C3C=C(F)C4=Cc5c(cnn5-c5ccccc5)C[C@]4(C)[C@@]3(F)C(O)C[C@]2(C)[C@@]1(OC(=O)c1ccco1)C(=O)SCF (stereo partly shown) [Compound 5] | 1.444 | – | 298,760 and 265,160 and 249,760 | 1.485 and 1.433 and 1.413 | 1.235 | 346,400 and 350,240 and 345,760 | 1.108 and 1.227 and 1.371 | 101 | 86.1 | 29.3 | 25 | – | – | – | – | – | – | – | –
C[C@@H]1CC2C3C=C(F)C4=Cc5c(cnn5-c5ccccc5)C[C@]4(C)[C@@]3(F)C(O)C[C@]2(C)[C@@]1(OC(=O)c1ccco1)C(=O)OC(C)(C)C (stereo partly shown) [Compound 6] | 1.417 | – | 353,720 and 347,400 and 378,600 | 1.291 and 1.356 and 1.605 | 1.614 | 385,840 and 290,120 and 330,680 | 1.694 and 1.490 and 1.659 | 98.8 | 113 | 28.7 | 32.7 | – | – | – | – | – | – | – | –
C[C@@H]1C[C@H]2[C@@H]3CCC4=CC(=O)C=C[C@]4(C)[C@@]3(F)[C@@H](O)C[C@]2(C)[C@@]1(O)C(=O)CO [DEX, dexamethasone, reference compound] | – | – | – | – | – | – | – | – | – | – | – | – | – | – | – | 52.82 | 100 | – | –
CON(C)C(=O)[C@@]1(OC(=O)c2ccco2)[C@H](C)CC2C3C=C(F)C4=Cc5c(cnn5-c5ccccc5)C[C@]4(C)[C@@]3(F)C(O)C[C@@]21C (stereo partly shown) [VSGC12, reference compound] | 1.402 | – | 316,240 and 298,600 and 289,480 | 1.598 and 1.522 and 1.085 | 1.682 | 331,400 and 309,120 and 312,400 | 1.767 and 1.765 and 1.513 | 97.8 | 117 | 28.4 | 34.1 | – | – | – | – | – | – | – | –
C[C@]12CCC(=O)C=C1CC[C@@H]1[C@@H]2[C@@H](O)C[C@@]2(C)[C@H]1CC[C@]2(O)C(=O)CO [cortisol, Cortisol] | – | – | – | – | – | – | – | – | – | – | – | – | – | – | – | – | – | inactive | –
C[C@]12C=CC(=O)C=C1CC[C@@H]1[C@@H]2[C@@H](O)C[C@@]2(C)[C@H]1CC[C@]2(O)C(=O)CO [prednisolone] | – | – | – | – | – | – | – | – | – | – | – | – | – | – | – | – | – | – | about 5 fold
